Measured values: patent publication US8618046B2, “Treatment of atherosclerosis with cholesterol ester transport protein mimotopes” (Affiris AG, priority 2007, dated 2013)
“Also recorded” adds a separate entry of the source. Where no end group is shown, it is not given here.

Assays:
[1] = system: monoclonal antibody “Frida”; test: In vitro inhibition (competition) ELISA with mAb Frida on coated original CETP epitope; format: binding, mouse; settings: for inhibition ELISA signal, high / inhibition ELISA signal, low / inhibition ELISA signal, 2 μg peptide / inhibition ELISA signal, 20 μg peptide: 2.5 ng mAb Frida; for inhibition ELISA signal, high / inhibition ELISA signal, low / inhibition ELISA signal, first value column / inhibition ELISA signal, second value column / inhibition ELISA signal, 2 μg peptide / inhibition ELISA signal, 20 μg peptide: detection αIgG1; for inhibition ELISA signal, high: high peptide amount; for inhibition ELISA signal, low: low peptide amount; for inhibition ELISA signal, first value column / inhibition ELISA signal, second value column: FIG. 18b, column without head; for inhibition ELISA signal, 2 μg peptide / inhibition ELISA signal, 20 μg peptide: coat 1 μM peptide; for inhibition in in vitro competition ELISA, mAb “Frida” (in words): monoclonal antibodies “Frida” and, where stated, “James”
Experimental: Different amounts of peptides (2 and 20 μg, as indicated in the respective figures) derived from Phage Display were incubated with the monoclonal antibody that was used for the screening procedure. Peptides diminishing subsequent binding of the antibody to the original CETP epitope (C-terminal 16 amino acids of CETP protein) coated on ELISA plates were considered as inhibiting. (Results see i.a. FIGS. 19a to 19c)

irrelevant peptide-BSA = test: Titer to irrelevant peptide in sera of immunised animals (peptide ELISA); format: in vivo, mouse; settings: Table 1, mice, sera 2 weeks after 3rd injection
Experimental: Balb/c mice/30 μg Peptide, 2 injections in 2 week intervals. S3=2 weeks after 3rd injection. Alum as adjuvant. Titers against original epitope (p4073) induced by injection of mimotopes. Well coating: 50 μl of 1 μM p4073-BSA or 1 μg/ml activated KLH. Detection: αIgG:
Subcutaneous injections in the flank were performed in week 1, week 3 and week 7 with 30 μg peptide-KLH per mouse. Intradermal injections in the ear were performed in week 1, week 3 and week 6 with 10 μg peptide-KLH per mouse. Sera were taken 2 weeks after the 3rd injection. Vaccine formulation with Alum (always 1 mg per mouse): up to 250 μl, injected into one flank. The Alum formulation with 1 ml per mouse (500 μl into each flank) was in 1×PBS as buffer.
Vaccine formulation with Gerbu Adjuvant 100 (Gerbu Cat. Nr. #3100; always 50 μl adjuvant per mouse): 200 μl, 100 μl injected into each flank comprising 1×HEPES as buffer.
Female Balb/c mice, five mice per group, were subcutaneously immunized with 30 μg peptide coupled to KLH. Control groups were administered KLH or C-[…] (SEQ ID NO. 147). As adjuvant alum was used. […] The in vitro ELISA assay to determine the antibody titer was performed with pooled sera after two vaccinations in a two week interval (S2; see FIGS. 7a to 7d). The wells of the ELISA plate were coated with KLH (positive control), mimotope-BSA conjugate, C-[…] (SEQ ID NO. 147) and a irrelevant peptide-BSA conjugate (negative control). The detection was performed with anti-mouse IgG.

[2] = FIG. 18a, coat 1 μM 4073 peptide

## C-AAAPAHLLVDAAQAAA (N-terminal Cys; CETP mimotope) [p4437]
[1]; FIG. 18c, coat 1 μM 4073
  inhibition ELISA signal, high: 1.674
  inhibition ELISA signal, low: 1.84

## C-AAFAAHLLADFLQAAA (N-terminal Cys; CETP mimotope) [p4436]
[1]; FIG. 18c, coat 1 μM 4073
  inhibition ELISA signal, high: 1.691
  inhibition ELISA signal, low: 1.632

## C-AAFPAHAAADFLQALA (N-terminal Cys; CETP mimotope) [p4435]
[1]; FIG. 18c, coat 1 μM 4073
  inhibition ELISA signal, high: 1.969
  inhibition ELISA signal, low: 1.281

## C-AAFPAHLLADAAQALA (N-terminal Cys; CETP mimotope) [p4434]
[1]; FIG. 18c, coat 1 μM 4073
  inhibition ELISA signal, high: 1.461
  inhibition ELISA signal, low: 1.74

## C-DFGFPAHVFIDWLQSLN (N-terminal cysteine; CETP mimotope) [p4818]
[1]; coat 1 μM 4073 peptide
  inhibition ELISA signal, first value column: 0.332
  inhibition ELISA signal, second value column: 0.091

## C-DFGFPAHVFIDWLQSLS (N-terminal cysteine; CETP mimotope) [p4480]
[1]; [2]
  inhibition ELISA signal, high: 0.103
  inhibition ELISA signal, low: 0.521

## C-DFGFPAHVLIDWLQSLN (N-terminal cysteine; CETP mimotope) [p4990]
[1]; coat 1 μM 4073 peptide
  inhibition ELISA signal, first value column: 0.263
  inhibition ELISA signal, second value column: 0.073

## C-DFGFPAHVTIDWLQSLN (N-terminal cysteine; CETP mimotope) [p4989]
[1]; coat 1 μM 4073 peptide
  inhibition ELISA signal, first value column: 0.932
  inhibition ELISA signal, second value column: 0.274

## C-DFGFPSHLIIDWLQSLS (N-terminal cysteine; CETP mimotope) [p4642]
[1]; coat 1 μM 4073 peptide
  inhibition ELISA signal, first value column: 0.171
  inhibition ELISA signal, second value column: 0.082

## C-FGFPAHFSIDWLQSLS (N-terminal cysteine; CETP mimotope) [p4475]
[1]; [2]
  inhibition ELISA signal, high: 1.429
  inhibition ELISA signal, low: 2.211

## C-FGFPAHVFIDWLQ (N-terminal cysteine; CETP mimotope) [p4631]
[1]; coat 1 μM 4073 peptide
  inhibition ELISA signal, first value column: 2.111
  inhibition ELISA signal, second value column: 2.147

## C-FGFPAHVFIDWLQSLN (N-terminal cysteine; CETP mimotope) [p4474]
[1]; [2]
  inhibition ELISA signal, high: 0.179
  inhibition ELISA signal, low: 1.452

## C-FGFPAHVFIDWLQSLS [p4361]
[1]; FIG. 10a
  inhibition ELISA signal, 2 μg peptide: 0.82
  inhibition ELISA signal, 20 μg peptide: 0.16

## C-FGFPAHVSFDWLQSLS (N-terminal cysteine; CETP mimotope) [p4476]
[1]; [2]
  inhibition ELISA signal, high: 1.417
  inhibition ELISA signal, low: 2.000

## C-FGFPAHVSIDWLQSLS (N-terminal cysteine; CETP mimotope) [Fr12/3/84 ext2]
[1]
  inhibition in in vitro competition ELISA, mAb “Frida” (in words): significant inhibition; also recorded: Strongly inhibiting

## C-FGFPAHVYIDWLQ (N-terminal cysteine; CETP mimotope) [p4630]
[1]; coat 1 μM 4073 peptide
  inhibition ELISA signal, first value column: 2.131
  inhibition ELISA signal, second value column: 2.115

## C-FGFPAHVYIDWLQSLS [p4362]
[1]; FIG. 10a
  inhibition ELISA signal, 2 μg peptide: 0.75
  inhibition ELISA signal, 20 μg peptide: 0.15

## C-FGFPEHLLVDFLQS [reference compound]
[1]
  inhibition in in vitro competition ELISA, mAb “Frida” (in words): not inhibiting in vitro

## C-FGFPEHLLVDFLQSL (N-terminal Cys) [reference compound]
[1]
  inhibition in in vitro competition ELISA, mAb “Frida” (in words): inhibiting in vitro

## C-FGFPEHLLVDFLQSLS [p4073, reference compound]
[1]; FIG. 10a
  inhibition ELISA signal, 2 μg peptide: 0.44
  inhibition ELISA signal, 20 μg peptide: 0.1
[1]; FIG. 10b
  inhibition ELISA signal, 2 μg peptide: 0.64
  inhibition ELISA signal, 20 μg peptide: 0.15
[1]; [2]
  inhibition ELISA signal, high: 0.094
  inhibition ELISA signal, low: 0.537
[1]; FIG. 18c, coat 1 μM 4073
  inhibition ELISA signal, high: 0.088
  inhibition ELISA signal, low: 0.554
[1]
  inhibition in in vitro competition ELISA, mAb “Frida” (in words): inhibiting in vitro

## C-FGFPEHVFIDWLQSLS (N-terminal cysteine; CETP mimotope) [p4477]
[1]; [2]
  inhibition ELISA signal, high: 0.116
  inhibition ELISA signal, low: 0.808

## C-FGFPQHLFTDWLQSLS (N-terminal cysteine; CETP mimotope) [p4481]
[1]; [2]
  inhibition ELISA signal, high: 0.156
  inhibition ELISA signal, low: 0.551

## C-FGFPSHIIIDWLQSLS (N-terminal Cys; CETP mimotope) [p4432]
[1]; FIG. 18c, coat 1 μM 4073
  inhibition ELISA signal, high: 0.096
  inhibition ELISA signal, low: 0.635

## C-FGFPSHLIIDWLQSLS (N-terminal Cys; CETP mimotope) [p4325]
[1]; FIG. 10b
  inhibition ELISA signal, 2 μg peptide: 0.42
  inhibition ELISA signal, 20 μg peptide: 0.1

## C-FGFPSHLIIEWLQSLS (N-terminal Cys; CETP mimotope) [p4433]
[1]; FIG. 18c, coat 1 μM 4073
  inhibition ELISA signal, high: 0.672
  inhibition ELISA signal, low: 1.114

## C-FKPAHVFIDWLQSLS (N-terminal cysteine; CETP mimotope) [p4478]
[1]; [2]
  inhibition ELISA signal, high: 1.206
  inhibition ELISA signal, low: 2.231

## C-FPEHLLVDFLQSL (N-terminal Cys) [reference compound]
[1]
  inhibition in in vitro competition ELISA, mAb “Frida” (in words): not inhibiting in vitro

## C-FPEHLLVDFLQSLS (N-terminal Cys) [reference compound]
[1]
  inhibition in in vitro competition ELISA, mAb “Frida” (in words): inhibiting in vitro

## C-GFKPAHVFIDWLQSLS (N-terminal cysteine; CETP mimotope) [p4479]
[1]; [2]
  inhibition ELISA signal, high: 1.591
  inhibition ELISA signal, low: 2.165

## C-GFPEHLLVDFLQSLS (N-terminal Cys) [reference compound]
[1]
  inhibition in in vitro competition ELISA, mAb “Frida” (in words): inhibiting in vitro

## C-PAHVFIDWLQ (N-terminal cysteine; CETP mimotope) [p4820]
[1]; coat 1 μM 4073 peptide
  inhibition ELISA signal, first value column: 2.310
  inhibition ELISA signal, second value column: 2.374

## C-PAHVYIDWLQSLS (N-terminal cysteine; CETP mimotope) [p4629]
[1]; coat 1 μM 4073 peptide
  inhibition ELISA signal, first value column: 0.313
  inhibition ELISA signal, second value column: 0.118

## C-PEHLLVDFLQSLS (N-terminal Cys) [reference compound]
[1]
  inhibition in in vitro competition ELISA, mAb “Frida” (in words): evtl. slightly inhibiting in vitro

## C-PSHLIIDWLQ (N-terminal cysteine; CETP mimotope) [p4819]
[1]; coat 1 μM 4073 peptide
  inhibition ELISA signal, first value column: 2.226
  inhibition ELISA signal, second value column: 2.158

## FGFPAHVFIDWLQSLN-C [p5068]
[1]; coat 1 μM 4073 peptide
  inhibition ELISA signal, first value column: 0.757
  inhibition ELISA signal, second value column: 0.271

## FGFPAHVYIDWLQSLS-C (C-terminal cysteine; CETP mimotope) [p5067]
[1]; coat 1 μM 4073 peptide
  inhibition ELISA signal, first value column: 0.563
  inhibition ELISA signal, second value column: 0.217

## FGFPEHLLVDFLQSLS-C (C-terminal Cys; CETP mimotope) [p1208, positive control peptide, reference compound]
[1]; [2]
  inhibition ELISA signal, high: 0.093
  inhibition ELISA signal, low: 0.712
[1]; coat 1 μM 4073 peptide
  inhibition ELISA signal, first value column: 0.264
  inhibition ELISA signal, second value column: 0.079
[1]; FIG. 18c, coat 1 μM 4073
  inhibition ELISA signal, high: 0.101
  inhibition ELISA signal, low: 0.942

## p4181-KLH: F3-6 C-NFLKTLS coupled to KLH (CNFLKTLS; also: coupled to KLH)
Irrelevant peptide-BSA; Alum s.c. (30 μg peptide)
  titer, p irrelevant: no titer
Irrelevant peptide-BSA; KLH/Alum i.d. (10 μg peptide)
  titer, p irrelevant: no titer

## p4184-KLH: F3-18 C-DFLRTLT coupled to KLH (CDFLRTLT; also: coupled to KLH)
Irrelevant peptide-BSA; KLH/Alum i.d. (10 μg peptide)
  titer, p irrelevant: no titer
